8 compounds from ChEMBL document CHEMBL2331130, “Synthesis and antibacterial activity of 9-oxime ether non-ketolides, and novel binding mode of alkylides with bacterial rRNA” (2013) can be followed below.

In brackets after ≈: the same amount, converted by molar mass.

What all share (type): functional
For experiment [1], the system named is Staphylococcus epidermidis. Description: Antibacterial activity against methicillin-resistant, coagulase-negative, MLS-resistant (inducible) Staphylococcus epidermidis E3 by broth microdilution method. (In general: In broth dilution the organism is exposed to a series of concentrations in liquid medium.)
Experiment [2] has as its system Staphylococcus epidermidis. In words: Antibacterial activity against methicillin-resistant, MLS-resistant (constitutive) Staphylococcus epidermidis E2 by broth microdilution method.
For experiment [3], the system named is Staphylococcus epidermidis. Description: Antibacterial activity against methicillin-susceptible, MLS-resistant (inducible) Staphylococcus epidermidis E1 by broth microdilution method.
In experiment [4] the test system is Staphylococcus aureus. In words: Antibacterial activity against methicillin-resistant, […], MLS-resistant (constitutive) Staphylococcus aureus PU 19 by broth microdilution method.
The subject of experiment [5] is Staphylococcus aureus. Description: Antibacterial activity against methicillin-susceptible, MLS-resistant (inducible) Staphylococcus aureus PU 64 by broth microdilution method.
The test system of experiment [6] is Staphylococcus aureus. Description: Antibacterial activity against methicillin-resistant, MLS-resistant (constitutive) Staphylococcus aureus PU 20 by broth microdilution method.
Experiment [7] concerns Staphylococcus aureus. In words: Antibacterial activity against methicillin-resistant, MLS-resistant (inducible) Staphylococcus aureus PU 32 by broth microdilution method.
Experiment [8] has as its system Staphylococcus aureus. In words: Antibacterial activity against erythromycin-susceptible Staphylococcus aureus ATCC 29213 by broth microdilution method.
Experiment [9] deals with Streptococcus pyogenes. Description: Antibacterial activity against erythromycin-susceptible Streptococcus pyogenes A3 by broth microdilution method.
Experiment [10] concerns Streptococcus pyogenes. In words: Antibacterial activity against MLS-resistant (constitutive) Streptococcus pyogenes A2 by broth microdilution method.
Experiment [11] has as its system Streptococcus dysgalactiae. In words: Antibacterial activity against erythromycin-resistant Streptococcus dysgalactiae A1 by broth microdilution method.
For experiment [12], the system named is Streptococcus pneumoniae. In words: Antibacterial activity against MLS-resistant (constitutive), penicillin-susceptible Streptococcus pneumoniae PU27 by broth microdilution method.
Experiment [13] deals with Streptococcus pneumoniae. Description: Antibacterial activity against MLS-resistant (constitutive), penicillin-resistant Streptococcus pneumoniae PU11 by broth microdilution method.
The subject of experiment [14] is Streptococcus pneumoniae. Description: Antibacterial activity against penicillin-susceptible Streptococcus pneumoniae PU09 harboring mef gene by broth microdilution method.
Experiment [15] deals with Streptococcus pneumoniae. Description: Antibacterial activity against erythromycin-susceptible Streptococcus pneumoniae ATCC 49619 by broth microdilution method.

A word on the MIC: it is the smallest concentration in the dilution series that meets the test's criterion for growth inhibition. Low readings indicate greater potency, high ones weaker potency. Turning to `CC[C@H]1OC(=O)[C@H](C)[C@@H](OC(=O)Cc2ccccn2)[C@H](C)[C@@H](O[C@@H]2O[C@H](C)C[C@H](N(C)C)[C@H]2O)[C@](C)(OC)C[C@@H](C)/C(=N\OCC#Cc2cncc3ccccc23)[C@H](C)[C@H]2OC(=O)O[C@@]21C`, the MIC in [1] was above 256 µg/mL; in experiment [2], above 256 µg/mL; in experiment [3], above 256 µg/mL; against Staphylococcus aureus [4], above 256 µg/mL; against Staphylococcus aureus [5] it was 16 µg/mL (≈ 17.5 µM); against Staphylococcus aureus [6], above 256 µg/mL. Also, the MIC against Staphylococcus aureus [7] was 32 µg/mL (≈ 35 µM); in the experiment with Staphylococcus aureus [8], 32 µg/mL (≈ 35 µM); with Streptococcus pyogenes [9] it was 8 µg/mL (≈ 8.74 µM); in the experiment with Streptococcus pyogenes [10] it was 32 µg/mL (≈ 35 µM); in experiment [11], 8 µg/mL (≈ 8.74 µM); with Streptococcus pneumoniae [12], 32 µg/mL (≈ 35 µM). The MIC against Streptococcus pneumoniae [13] is 32 µg/mL (≈ 35 µM); with Streptococcus pneumoniae [14], 8 µg/mL (≈ 8.74 µM); against Streptococcus pneumoniae [15] it was 1 µg/mL (≈ 1.09 µM).

Consider `CC[C@H]1OC(=O)[C@H](C)C(=O)[C@H](C)[C@@H](O[C@@H]2O[C@H](C)C[C@H](N(C)C)[C@H]2O)[C@](C)(OC)C[C@@H](C)C(=O)[C@H](C)[C@H]2N(CCCCn3cnc(-c4cccnc4)c3)C(=O)O[C@]12C` [TELITHROMYCIN], for which the MIC in experiment [1] was 8 µg/mL (≈ 9.85 µM); in experiment [2], above 256 µg/mL; in experiment [3], 1 µg/mL (≈ 1.23 µM); against Staphylococcus aureus [4], above 256 µg/mL; with Staphylococcus aureus [5], 0.5 µg/mL (≈ 0.616 µM); with Staphylococcus aureus [6], above 256 µg/mL. In addition, the MIC with Staphylococcus aureus [7] is 1 µg/mL (≈ 1.23 µM); against Staphylococcus aureus [8], 0.25 µg/mL (≈ 0.308 µM); with Streptococcus pyogenes [9], at most 0.008 µg/mL; in the experiment on Streptococcus pyogenes [10], 128 µg/mL (≈ 158 µM); in experiment [11], 2 µg/mL (≈ 2.46 µM); in the experiment with Streptococcus pneumoniae [12] it was 0.125 µg/mL (≈ 0.154 µM). Besides, the values for the MIC against Streptococcus pneumoniae [13], in the experiment on Streptococcus pneumoniae [14] and against Streptococcus pneumoniae [15] were 4 µg/mL (≈ 4.93 µM), 0.125 µg/mL (≈ 0.154 µM) and at most 0.008 µg/mL, respectively.

Consider `CC[C@H]1OC(=O)[C@H](C)[C@@H](OC(=O)Cc2cccnc2)[C@H](C)[C@@H](O[C@@H]2O[C@H](C)C[C@H](N(C)C)[C@H]2O)[C@](C)(OC)C[C@@H](C)/C(=N\OCC#Cc2cncc3ccccc23)[C@H](C)[C@H]2OC(=O)O[C@@]21C`, for which the MIC in experiment [1] is above 256 µg/mL; in experiment [2] it was above 256 µg/mL; in [3], above 256 µg/mL; in the experiment on Staphylococcus aureus [4] it was above 256 µg/mL; against Staphylococcus aureus [5], 32 µg/mL (≈ 35 µM); in the experiment on Staphylococcus aureus [6], above 256 µg/mL. Also, the MIC in the experiment with Staphylococcus aureus [7] came to 64 µg/mL (≈ 69.9 µM); with Staphylococcus aureus [8], 32 µg/mL (≈ 35 µM); in the experiment with Streptococcus pyogenes [9] it was 1 µg/mL (≈ 1.09 µM); in the experiment with Streptococcus pyogenes [10] it was 64 µg/mL (≈ 69.9 µM); in experiment [11], 8 µg/mL (≈ 8.74 µM); in the experiment on Streptococcus pneumoniae [12] it was 64 µg/mL (≈ 69.9 µM). In addition, the MIC turned out to be 64 µg/mL (≈ 69.9 µM) against Streptococcus pneumoniae [13], 8 µg/mL (≈ 8.74 µM) with Streptococcus pneumoniae [14] and 1 µg/mL (≈ 1.09 µM) against Streptococcus pneumoniae [15].

`CC[C@H]1OC(=O)[C@H](C)[C@@H](OC(=O)Cc2cccnc2)[C@H](C)[C@@H](O[C@@H]2O[C@H](C)C[C@H](N(C)C)[C@H]2O)[C@](C)(OC)C[C@@H](C)/C(=N\OC/C=C/c2cnc3ccccc3c2)[C@H](C)[C@H]2OC(=O)O[C@@]21C`: the MIC is above 256 µg/mL in experiment [1]; above 256 µg/mL in experiment [2]; above 256 µg/mL in experiment [3]; above 256 µg/mL in the experiment on Staphylococcus aureus [4]; 32 µg/mL (≈ 34.9 µM) against Staphylococcus aureus [5]; above 256 µg/mL against Staphylococcus aureus [6]. In addition, the MIC came out at 64 µg/mL (≈ 69.8 µM) in the experiment with Staphylococcus aureus [7]; 64 µg/mL (≈ 69.8 µM) against Staphylococcus aureus [8]; 1 µg/mL (≈ 1.09 µM) against Streptococcus pyogenes [9]; 128 µg/mL (≈ 140 µM) with Streptococcus pyogenes [10]; 16 µg/mL (≈ 17.4 µM) in experiment [11]; 64 µg/mL (≈ 69.8 µM) with Streptococcus pneumoniae [12]. Moreover, the values for the MIC against Streptococcus pneumoniae [13], against Streptococcus pneumoniae [14] and against Streptococcus pneumoniae [15] were 128 µg/mL (≈ 140 µM), 8 µg/mL (≈ 8.72 µM) and 2 µg/mL (≈ 2.18 µM), respectively.

Consider `CC[C@H]1OC(=O)[C@H](C)[C@@H](O/C=C\Cc2cncnc2)[C@H](C)[C@@H](O[C@@H]2O[C@H](C)C[C@H](N(C)C)[C@H]2O)[C@](C)(OC)C[C@@H](C)/C(=N\OC/C=C/c2cnc3ccccc3c2)[C@H](C)[C@H]2OC(=O)O[C@@]21C`, for which the MIC in experiment [1] is above 256 µg/mL; in experiment [2], above 256 µg/mL; in experiment [3], above 256 µg/mL; in the experiment on Staphylococcus aureus [4], above 256 µg/mL; against Staphylococcus aureus [5] it was 32 µg/mL (≈ 34.9 µM); in the experiment with Staphylococcus aureus [6] it was above 256 µg/mL. Besides, the minimum inhibitory concentration (MIC) in the experiment with Staphylococcus aureus [7] was above 256 µg/mL; in the experiment with Staphylococcus aureus [8], 32 µg/mL (≈ 34.9 µM); in the experiment with Streptococcus pyogenes [9], 2 µg/mL (≈ 2.18 µM); against Streptococcus pyogenes [10] it was 64 µg/mL (≈ 69.9 µM); in experiment [11], 16 µg/mL (≈ 17.5 µM); in the experiment with Streptococcus pneumoniae [12], 64 µg/mL (≈ 69.9 µM). The MIC stood at 128 µg/mL (≈ 140 µM) against Streptococcus pneumoniae [13], 32 µg/mL (≈ 34.9 µM) in the experiment with Streptococcus pneumoniae [14] and 2 µg/mL (≈ 2.18 µM) with Streptococcus pneumoniae [15].

Consider `CC[C@H]1OC(=O)[C@H](C)[C@@H](OC(=O)Cc2ccccn2)[C@H](C)[C@@H](O[C@@H]2O[C@H](C)C[C@H](N(C)C)[C@H]2O)[C@](C)(OC)C[C@@H](C)/C(=N\OC/C=C/c2cnc3ccccc3c2)[C@H](C)[C@H]2OC(=O)O[C@@]21C`, for which the MIC in [1] is 32 µg/mL (≈ 34.9 µM); in experiment [2], above 256 µg/mL; in experiment [3] it was 32 µg/mL (≈ 34.9 µM); against Staphylococcus aureus [4], above 256 µg/mL; against Staphylococcus aureus [5], 32 µg/mL (≈ 34.9 µM); in the experiment with Staphylococcus aureus [6] it was above 256 µg/mL. Also, the minimum inhibitory concentration (MIC) in the experiment with Staphylococcus aureus [7] is 64 µg/mL (≈ 69.8 µM); in the experiment with Staphylococcus aureus [8], 32 µg/mL (≈ 34.9 µM); with Streptococcus pyogenes [9], 0.5 µg/mL (≈ 0.545 µM); with Streptococcus pyogenes [10] it was 32 µg/mL (≈ 34.9 µM); in [11], 8 µg/mL (≈ 8.72 µM); in the experiment on Streptococcus pneumoniae [12], 32 µg/mL (≈ 34.9 µM). Further, the figures for the MIC against Streptococcus pneumoniae [13], in the experiment with Streptococcus pneumoniae [14] and in the experiment with Streptococcus pneumoniae [15] were 64 µg/mL (≈ 69.8 µM), 16 µg/mL (≈ 17.4 µM) and 1 µg/mL (≈ 1.09 µM), respectively.

Regarding `CC[C@H]1OC(=O)[C@H](C)[C@@H](O)[C@H](C)[C@@H](O[C@@H]2O[C@H](C)C[C@H](N(C)C)[C@H]2O)[C@](C)(OC)C[C@@H](C)/C(=N\OC/C=C/c2cnc3ccccc3c2)[C@H](C)[C@H]2OC(=O)O[C@@]21C`, the MIC in [1] was above 256 µg/mL; in experiment [2], above 256 µg/mL; in [3] it was 128 µg/mL (≈ 160 µM); against Staphylococcus aureus [4] it was above 256 µg/mL; in the experiment with Staphylococcus aureus [5], 256 µg/mL (≈ 321 µM); in the experiment with Staphylococcus aureus [6], above 256 µg/mL. Moreover, the MIC was found to be 128 µg/mL (≈ 160 µM) against Staphylococcus aureus [7]; 128 µg/mL (≈ 160 µM) in the experiment with Staphylococcus aureus [8]; 8 µg/mL (≈ 10 µM) in the experiment on Streptococcus pyogenes [9]; 64 µg/mL (≈ 80.2 µM) in the experiment on Streptococcus pyogenes [10]; 16 µg/mL (≈ 20.1 µM) in experiment [11]; 64 µg/mL (≈ 80.2 µM) in the experiment with Streptococcus pneumoniae [12]. For the same compound, the figures for the MIC against Streptococcus pneumoniae [13], against Streptococcus pneumoniae [14] and against Streptococcus pneumoniae [15] were 64 µg/mL (≈ 80.2 µM), 4 µg/mL (≈ 5.01 µM) and 4 µg/mL (≈ 5.01 µM), respectively.

Turning to `CC[C@H]1OC(=O)[C@H](C)[C@@H](O)[C@H](C)[C@@H](O[C@@H]2O[C@H](C)C[C@H](N(C)C)[C@H]2O)[C@](C)(OC)C[C@@H](C)/C(=N\OCCCc2cncc3ccccc23)[C@H](C)[C@H]2OC(=O)O[C@@]21C`, the MIC in experiment [1] is above 256 µg/mL; in [2], above 256 µg/mL; in experiment [3], above 256 µg/mL; with Staphylococcus aureus [4], above 256 µg/mL; against Staphylococcus aureus [5] it was 256 µg/mL (≈ 320 µM); against Staphylococcus aureus [6] it was above 256 µg/mL. The MIC in the experiment on Staphylococcus aureus [7] was above 256 µg/mL; against Staphylococcus aureus [8] it was above 256 µg/mL; in the experiment with Streptococcus pyogenes [9], 4 µg/mL (≈ 5 µM); in the experiment on Streptococcus pyogenes [10], 32 µg/mL (≈ 40 µM); in experiment [11] it was 16 µg/mL (≈ 20 µM); in the experiment on Streptococcus pneumoniae [12], 32 µg/mL (≈ 40 µM). The results for the MIC in the experiment on Streptococcus pneumoniae [13], with Streptococcus pneumoniae [14] and against Streptococcus pneumoniae [15] were 32 µg/mL (≈ 40 µM), 8 µg/mL (≈ 10 µM) and 8 µg/mL (≈ 10 µM), respectively.
